Patent publication US9073858B2, “Methods of targeted drug development” (priority 2010, dated 2015)
Read-outs that look alike come from different tables or passages of the source.

Columns and labels:
A549 cells = assay: A549 Cell Proliferation Assay (MTT); type: cell-based; conditions: Homo sapiens
H1975 cells = assay: H1975 Cell Proliferation Assay (MTT); type: cell-based; conditions: Homo sapiens
HT-29 cells = assay: HT-29 Cell Proliferation Assay (MTT); type: cell-based; conditions: Homo sapiens, HT-29, 72 h, read-out: IC50 Value (μM) HT-29 Cells
[1] = tested on: DNA fragmentation in A549 cells; assay: DNA Fragmentation Assay (Cell Death Detection ELISA); type: cell-based; conditions: for Emax at 1 µM / Emax at 10 µM: A549, read-out: % Increase Relative to Staurosporin
[2] = Stability on incubation with mouse liver microsomes (MLM); type: in vitro ADME; conditions: percentage left after incubation with mouse liver microsomes for 30 minutes
Method in brief: (§1)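 Values are percent compound remaining after 30 min incubation with mouse or human liver microsomes.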

[3] = Stability on incubation with human liver microsomes (HLM); type: in vitro ADME; conditions: percentage left after incubation with human liver microsomes for 30 minutes
Method in brief: as §1

[4] = A549, 72 h, read-out: IC50 Value (μM) A549 Cells
[5] = NCI-H1975, 72 h, read-out: IC50 Value (μM) H1975 Cells
[6] = Homo sapiens, A549, 24 h, read-out: % Increase over Background

| IC50 (H1975 cells; NCI-H1975, H1975 cells, 72 hours post compound treatment, read-out: IC50 (best fit value from FIG. 10)) [µM] | IC50 (H1975 cells; NCI-H1975, H1975 cells, 72 hours post compound treatment, read-out: Log IC50 (best fit value from FIG. 10) (converted)) [µM] | IC50 (H1975 cells; NCI-H1975, MTT, 72 hours, read-out: IC50 Value (μM) H1975 Cells) [µM] | SMILES | IC50 (A549 cells; [4]) [µM] | IC50 (A549 cells; A549, read-out: IC50, cell proliferation in A549 or H1975 cells) [µM] | IC50 (H1975 cells; [5]) [µM] | IC50 (HT-29 cells) [µM] | apoptotic activity ([1]; Caspase, DNA Fragmentation, Annexin-V) | activation at 1 µM [1, 6] [%] | activation at 10 µM [1, 6] [%] | Emax at 1 µM ([1]; Homo sapiens) [%] | Emax at 10 µM ([1]; Homo sapiens) [%] | MLM % Remaining@ 30 Min [2] [%] | HLM % Remaining@ 30 Min [3] [%] |
| --- | --- | --- | --- | --- | --- | --- | --- | --- | --- | --- | --- | --- | --- | --- |
| – | – | – | Cc1cc(Cl)cnc1NC(c1ccc(Cl)cc1Cl)c1ccc2cccnc2c1O (stereo not shown) [AD4-13130] | 0.12 | ≤ 0.1 | 0.088 | 0.64 | increased apoptotic activity | 630 | 684 | 62 | 69 | 69 | 89 |
| – | – | – | Cc1c(Cl)cnc(NC(c2cccc(Cl)c2Cl)c2ccc3cccnc3c2O)c1F (stereo not shown) [AD4-13192] | 0.15 | – | 0.19 | 2.2 | – | – | 561 | 11 | 55 | 63 | 100 |
| 0.304 | 0.304 | 0.3 | Oc1c(C(Nc2ccccn2)c2ccc(C(F)(F)F)cc2)ccc2cccnc12 (stereo not shown) [compound 10460] | – | – | – | – | – | – | – | – | – | – | – |
